Experimental data reported in the NIST ThermoML archive (doi:10.1016/j.jct.2016.09.040).

Test: mn = molality of the nth substance listed, in mol/kg
Conditions: 75 kPa, Liquid; for viscosity: Capillary tube (Ostwald / Ubbelohde) method; for speed of sound: Frequency=3 MHz, Sing-around technique in a fixed-path interferometer; for mass density: Vibrating tube method

CCC(N)C(=O)O (stereo not drawn) [(.+-.)-α-aminobutyric acid] + O
Conditions | mass density [kg/m3] | speed of sound [m/s] | viscosity [mPa·s]
293.15 K, m1 = 0.09999 | 1001.01 | 1490.7 | 1.042
293.15 K, m1 = 0.2999 | 1006.4 | 1506.8 | 1.109
293.15 K, m1 = 0.4999 | 1011.57 | 1522.6 | 1.181
293.15 K, m1 = 0.7 | 1016.56 | 1538.5 | 1.266
293.15 K, m1 = 0.9001 | 1021.37 | 1554.2 | 1.358
293.15 K, m1 = 1 | 1023.7 | 1561.8 | 1.416
298.15 K, m1 = 0.09999 | 999.805 | 1504.7 | 0.905
298.15 K, m1 = 0.2999 | 1005.12 | 1519.9 | 0.97
298.15 K, m1 = 0.4999 | 1010.25 | 1535.1 | 1.057
298.15 K, m1 = 0.7 | 1015.2 | 1550 | 1.121
298.15 K, m1 = 0.9001 | 1019.98 | 1565.1 | 1.199
298.15 K, m1 = 1 | 1022.3 | 1572.4 | 1.243
303.15 K, m1 = 0.09999 | 998.37 | 1516.8 | 0.813
303.15 K, m1 = 0.2999 | 1003.66 | 1531.3 | 0.869
303.15 K, m1 = 0.4999 | 1008.75 | 1545.8 | 0.93
303.15 K, m1 = 0.7 | 1013.66 | 1560 | 0.997
303.15 K, m1 = 0.9001 | 1018.4 | 1574.5 | 1.061
303.15 K, m1 = 1 | 1020.7 | 1581.7 | 1.097
308.15 K, m1 = 0.09999 | 996.759 | 1526.9 | 0.731
308.15 K, m1 = 0.2999 | 1002 | 1540.8 | 0.781
308.15 K, m1 = 0.4999 | 1007.05 | 1554.7 | 0.834
308.15 K, m1 = 0.7 | 1011.92 | 1568.6 | 0.891
308.15 K, m1 = 0.9001 | 1016.62 | 1582.5 | 0.949
308.15 K, m1 = 1 | 1018.9 | 1589.5 | 0.979
313.15 K, m1 = 0.09999 | 994.9 | 1535.7 | 0.661
313.15 K, m1 = 0.2999 | 999.99 | 1548.7 | 0.706
313.15 K, m1 = 0.4999 | 1004.83 | 1561.8 | 0.754
313.15 K, m1 = 0.7 | 1009.41 | 1574.7 | 0.804
313.15 K, m1 = 0.9001 | 1013.72 | 1588 | 0.853
313.15 K, m1 = 1 | 1015.78 | 1595.1 | 0.895
